# Legend:
# CFTR [1] = biological target: T1, CFTR (Homo sapiens, UniProt P13569); assay: Membrane Potential Dye, Enteroid Assay B; format: cell-based; conditions: Table 9; for EC50: read-out: Ent. B EC50
# Description: Base medium (ADF+++) consisted of Advanced DMEM/Ham's F12, 2 mM Glutamax, 10 mM HEPES, […] penicillin/streptomycin.
# Bath 1 Buffer consisted of 1 mM MgCl2, 160 mM NaCl, 4.5 mM KCl, 10 mM HEPES, 10 mM Glucose, 2 mM CaCl2).
# Chloride Free Buffer consisted of 1 mM Magnesium Gluconate, 2 mM Calcium Gluconate, 4.5 mM Potassium Gluconate, 160 mM Sodium Gluconate, 10 mM HEPES, 10 mM Glucose.
# Bath 1 Dye Solution consisted of Bath 1 Buffer, 0.04% Pluronic F127, 20 μM Methyl Oxonol, 30 μM CaCCinh-A01, 30 μM Chicago Sky Blue.
# Chloride Free Dye Solution consisted of Chloride Free Buffer, 0.04% Pluronic F127, 20 μM Methyl Oxonol, 30 μM CaCCinh-A01, 30 μM Chicago Sky Blue.
# 3. Enteroid Cell Harvesting and Seeding
# Cells were recovered in cell recovery solution, collected by centrifugation at 650 rpm for 5 min at 4° C., resuspended in TryPLE and incubated for 5 min at 37° C. Cells were then collected by centrifugation at 650 rpm for 5 min at 4° C. and resuspended in IEMM containing 10 μM ROCK inhibitor (RI).
# 5. Membrane Potential Dye, Enteroid Assay B
# Briefly, cells were washed 5 times in Bath 1 Buffer. Bath 1 Dye Solution was added and the cells were incubated for 25 min at room temperature. Following dye incubation, cells were washed 3 times in Chloride Free Dye Solution. Chloride transport was initiated by addition of Chloride Free Dye Stimulation Solution and the fluorescence signal was read for 15 min.
# CFTR [2] = biological target: T1, CFTR; assay: Membrane Potential Dye, Enteroid Assay A; format: cell-based; conditions: for EC50: read-out: Ent. A EC50
# Summary of the method: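 Enteroid cells were loaded with methyl oxonol membrane potential dye (plus CaCCinh-A01 and Chicago Sky Blue) for 25 min at room temperature. Chloride transport was started by switching to chloride-free gluconate stimulation solution, with fluorescence read for 15 min. Activity was expressed as % of a triple-combination CFTR modulator control (3 μM, 3 μM, 300 nM acute).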
# T1 sequence (P13569 with tags, fused parts or gaps DEL508-508): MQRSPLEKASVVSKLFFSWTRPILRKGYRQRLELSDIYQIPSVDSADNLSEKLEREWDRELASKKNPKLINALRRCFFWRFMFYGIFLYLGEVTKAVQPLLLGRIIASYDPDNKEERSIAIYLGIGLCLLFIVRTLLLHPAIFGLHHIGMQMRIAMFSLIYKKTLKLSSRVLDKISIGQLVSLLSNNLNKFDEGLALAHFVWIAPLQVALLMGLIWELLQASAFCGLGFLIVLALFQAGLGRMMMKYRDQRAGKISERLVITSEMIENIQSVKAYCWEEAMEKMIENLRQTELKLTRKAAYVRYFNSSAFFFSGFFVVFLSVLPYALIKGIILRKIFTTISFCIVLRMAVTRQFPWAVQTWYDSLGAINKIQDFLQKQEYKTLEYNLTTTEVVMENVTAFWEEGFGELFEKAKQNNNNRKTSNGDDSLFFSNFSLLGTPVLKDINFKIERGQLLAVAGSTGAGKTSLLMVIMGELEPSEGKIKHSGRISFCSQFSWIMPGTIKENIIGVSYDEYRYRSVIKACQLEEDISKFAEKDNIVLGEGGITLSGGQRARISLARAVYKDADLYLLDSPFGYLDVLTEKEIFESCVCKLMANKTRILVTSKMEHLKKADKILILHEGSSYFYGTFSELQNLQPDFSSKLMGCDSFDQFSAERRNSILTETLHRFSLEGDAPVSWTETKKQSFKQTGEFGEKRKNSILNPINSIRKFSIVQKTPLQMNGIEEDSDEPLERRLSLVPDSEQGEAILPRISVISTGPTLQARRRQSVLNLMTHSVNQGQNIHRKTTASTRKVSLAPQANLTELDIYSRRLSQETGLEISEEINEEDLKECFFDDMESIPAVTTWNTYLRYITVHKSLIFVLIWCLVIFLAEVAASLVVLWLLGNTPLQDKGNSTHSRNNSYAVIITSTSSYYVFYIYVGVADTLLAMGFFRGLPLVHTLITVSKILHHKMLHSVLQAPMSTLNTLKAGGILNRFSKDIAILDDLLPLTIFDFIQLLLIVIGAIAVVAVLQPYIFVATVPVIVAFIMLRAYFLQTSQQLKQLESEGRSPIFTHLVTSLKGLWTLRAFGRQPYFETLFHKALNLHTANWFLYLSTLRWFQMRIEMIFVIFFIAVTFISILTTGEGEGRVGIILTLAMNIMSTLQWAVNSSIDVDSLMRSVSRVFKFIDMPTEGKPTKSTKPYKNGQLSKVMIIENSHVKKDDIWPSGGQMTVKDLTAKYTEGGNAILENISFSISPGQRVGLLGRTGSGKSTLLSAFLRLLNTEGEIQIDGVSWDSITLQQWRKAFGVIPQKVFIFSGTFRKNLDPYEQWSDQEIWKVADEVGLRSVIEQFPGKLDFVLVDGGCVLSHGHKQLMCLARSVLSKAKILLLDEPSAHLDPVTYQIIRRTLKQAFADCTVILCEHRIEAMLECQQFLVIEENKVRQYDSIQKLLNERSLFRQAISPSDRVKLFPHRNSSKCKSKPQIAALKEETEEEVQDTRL
SMILES,EC50 (CFTR [1]) [µM],Ent. B Max Activity (CFTR [1]),also measured
Cc1cccc(C)c1-c1cc2nc(n1)NS(=O)(=O)c1cccc(c1)C(=O)NC[C@H](c1ccc(CC[Si](C)(C)C)cc1)O2 (stereo in doubt) [Compound 123],< 1,–,–
Cc1cccc(C)c1-c1cc2nc(n1)NS(=O)(=O)c1cccc(c1)C(=O)NC[C@H](c1ccc(CC[Si](C)(C)C)cc1)O2 (stereo in doubt) [Compound 124],< 1,–,–
Cc1cccc(C)c1-c1cc2nc(n1)NS(=O)(=O)c1cccc(c1)C(=O)NC[C@H](c1ccc(C[Si](C)(C)C)cc1)O2 (stereo in doubt) [Compound 125],< 1,–,–
Cc1cccc(C)c1-c1cc2nc(n1)NS(=O)(=O)c1cccc(c1)C(=O)NC[C@H](c1ccc(C[Si](C)(C)C)cc1)O2 (stereo in doubt) [Compound 126],< 1,–,–
Cc1cccc(C)c1-c1cc2nc(n1)NS(=O)(=O)c1cc(n(C)n1)C(=O)N[C@H](C)C(c1ccc(C(C)(C)C)cc1)O2 (stereo in doubt) [Compound 172],< 1,++ (++ is 30-60%),–
"O=C1N[C@@H]2CCCCCC/C=C/c3ccccc3-c3cc(nc(n3)NS(=O)(=O)c3cccc1c3)OC2 [Compound 36, (10E,18R)-30-oxa-26λ^6-thia-19,27,29,32-tetraazapentacyclo[16.11.2.13,28.121,25.04,9]tritriaconta-1,3(32),4(9),5,7,10,21(33),22,24,28-decaene-20,26,26-trione]",< 1,+++ (+++ is >60%),–
"O=C1N[C@@H]2CCCCCCCCc3ccccc3-c3cc(nc(n3)NS(=O)(=O)c3cccc1c3)OC2 [Compound 37, (18R)-30-Oxa-26λ^6-thia-19,27,29,32-tetraazapentacyclo[16.11.2.13,28.121,25.04,9]tritriaconta-1,3(32),4(9),5,7,21(33),22,24,28-nonaene-20,26,26-trione]",< 1,+++ (+++ is >60%),–
"Cc1cccc(/C=C/C2CC2)c1-c1cc2nc(n1)NS(=O)(=O)c1cccc(c1)C(=O)N[C@H](CC(C)C)CO2 [Compound 53, (11R)-6-[2-[(E)-2-Cyclopropylvinyl]-6-methyl-phenyl]-11-isobutyl-2,2-dioxo-9-oxa-2λ^6-thia-3,5,12,19-tetrazatricyclo[12.3.1.14,8]nonadeca-1(18),4(19),5,7,14,16-hexaen-13-one]",< 1,+++ (+++ is >60%),–
Cc1cccc(C)c1-c1cc2nc(n1)NS(=O)(=O)c1cccc(c1)C(=O)N[C@H](CC(C)(C)O)CO2 [Compound 65],3 to 30,++ (++ is 30-60%),–
"Cc1cccc(C)c1-c1cc2nc(n1)NS(=O)(=O)c1cccc(c1)C(=O)N[C@H](CCC(C)(C)O)CO2 [Compound 67, (11R)-6-(2,6-Dimethylphenyl)-11-(3-hydroxy-3-methylbutyl)-2,2-dioxo-9-oxa-2λ^6-thia-3,5,12,19-tetrazatricyclo[12.3.1.14,8]nonadeca-1(18),4(19),5,7,14,16-hexaen-13-one]",3 to 30,+ (+ is <30%),–
"Cc1cccc(C)c1-c1cc2nc(n1)NS(=O)(=O)c1cc(nn1C)C(=O)N[C@H](CC(C)(C)C)CO2 [Compound 77, (10R)-15-(2,6-Dimethylphenyl)-10-(2,2-dimethylpropyl)-5-methyl-3,3-dioxo-12-oxa-3λ^6-thia-2,5,6,9,16,17-hexazatricyclo[11.3.1.14,7]octadeca-1(17),4(18),6,13,15-pentaen-8-one]",1 to 3,++ (++ is 30-60%),–
Cc1cccc(C)c1-c1cc2nc(n1)NS(=O)(=O)c1cccc(c1)C(=O)NCC(c1ccc(CCCO)cc1)O2 (stereo not shown) [Compound 122],1 to 3,+++ (+++ is >60%),–
Cc1cccc(O)c1-c1cc2nc(n1)NS(=O)(=O)c1cccc(c1)C(=O)N[C@H](CC(C)C)CO2 [Compound 163],3 to 30,++ (++ is 30-60%),–
CC(C)C[C@@H]1COc2cc(C3(C)CC3)nc(n2)NS(=O)(=O)c2cccc(c2)C(=O)N1 [Compound 164],–,+ (+ is <30%),–
Cc1cccc(C)c1-c1cc2nc(n1)NS(=O)(=O)c1cc(n(C)n1)C(=O)NCC(CC(C)C)(CC(C)C)CO2 [Compound 173],1 to 3,++ (++ is 30-60%),–
Cc1cccc2c1-c1cc3nc(n1)NS(=O)(=O)c1cccc(c1)C(=O)N[C@H](CCCCCCCC2)CO3 [Compound 213],< 1,+++ (+++ is >60%),–

SMILES,EC50 (CFTR [1]) [µM],Ent. B Max Activity (CFTR [1]),also measured
C=CCCCCCC[C@@H]1COc2cc(-c3c(C)cccc3C=C)nc(n2)NS(=O)(=O)c2cccc(c2)C(=O)N1 [Compound 215],< 1,++ (++ is 30-60%),–
O=C1N[C@@H]2CCCCCCc3ccccc3-c3cc(nc(n3)NS(=O)(=O)c3cccc1c3)OC2 [Compound 216],< 1,+++ (+++ is >60%),–
O=C1N[C@@H]2CCCCCCCc3ccccc3-c3cc(nc(n3)NS(=O)(=O)c3cccc1c3)OC2 [Compound 217],< 1,+++ (+++ is >60%),–
O=C1N[C@@H]2CCCCC/C=C/c3ccccc3-c3cc(nc(n3)NS(=O)(=O)c3cccc1c3)OC2 [Compound 218],< 1,+++ (+++ is >60%),–
O=C1N[C@@H]2CCCC/C=C/c3ccccc3-c3cc(nc(n3)NS(=O)(=O)c3cccc1c3)OC2 [Compound 219],< 1,+++ (+++ is >60%),–
C=CCCCCC[C@@H]1COc2cc(-c3ccccc3C=C)nc(n2)NS(=O)(=O)c2cccc(c2)C(=O)N1 [Compound 220],< 1,+++ (+++ is >60%),–
C=CCCCC[C@@H]1COc2cc(-c3ccccc3C=C)nc(n2)NS(=O)(=O)c2cccc(c2)C(=O)N1 [Compound 221],< 1,+++ (+++ is >60%),–
Cc1cccc(C)c1-c1cc2nc(n1)NS(=O)(=O)c1cccc(c1)C(=O)NCc1cc(Cl)ccc1O2 [Compound 295],< 1,+++ (+++ is >60%),–
Cc1cccc(C)c1-c1cc2nc(n1)NS(=O)(=O)c1cc(no1)C(=O)N[C@H](CC(C)(C)C)CO2 [Compound 357],1 to 3,++ (++ is 30-60%),–
Cc1cccc(C)c1-c1cc2nc(n1)NS(=O)(=O)c1cc(n(C)n1)C(=O)N[C@H](CC(C)(C)C)CO2 [Compound 358],< 1,+++ (+++ is >60%),–
Cc1cccc(C)c1-c1cc2nc(n1)NS(=O)(=O)c1cccc(c1)C(=O)N[C@H](COCc1ccccc1)CO2 [Compound 486],–,–,Ent. A Max Activity (CFTR [2]; Enteroid Assay A): +++ (+++ is >600%); EC50 (CFTR [2]; Enteroid Assay A): 1 to 3 µM
Cc1cccc(C)c1-c1cc2nc(n1)NS(=O)(=O)c1cccc(c1)C(=O)NC1c3ccccc3CC1O2 (stereo not shown) [Compound 489],–,–,Ent. A Max Activity (CFTR [2]; Enteroid Assay A): +++ (+++ is >600%); EC50 (CFTR [2]; Enteroid Assay A): < 1 µM
Cc1cccc(C)c1-c1cc2nc(n1)NS(=O)(=O)c1cccc(c1)C(=O)NCC(CC(C)C)O2 (stereo not shown) [Compound 490],–,–,Ent. A Max Activity (CFTR [2]; Enteroid Assay A): +++ (+++ is >600%); EC50 (CFTR [2]; Enteroid Assay A): 1 to 3 µM
Cc1cccc(C)c1-c1cc2nc(n1)NS(=O)(=O)c1cccc(c1)C(=O)N[C@@H](CC(C)C)CO2 [Compound 491],–,–,EC50 (CFTR [2]; Enteroid Assay A): 1 to 3 µM
Cc1cccc(C)c1-c1cc2nc(n1)NS(=O)(=O)c1cccc(c1)C(=O)NC1(CCC(C(C)(C)C)CC1)CO2 (stereo not shown) [Compound 495],–,–,Ent. A Max Activity (CFTR [2]; Table 9): +++ (+++ is >60%); EC50 (CFTR [2]; Table 9): < 1 µM

# Continued, in another order:
EC50 (CFTR [1]) [µM],Ent. B Max Activity (CFTR [1]),SMILES,also measured
< 1,+++ (+++ is >60%),Cc1cccc(C)c1-c1cc2nc(n1)NS(=O)(=O)c1cccc(c1)C(=O)NC[C@@H](CC(C)C)CO2 (stereo in doubt) [Compound 367],–
< 1,++ (++ is 30-60%),Cc1cccc(C)c1-c1cc2nc(n1)NS(=O)(=O)c1cccc(c1)C(=O)NC[C@H](CC(C)C)CO2 (stereo in doubt) [Compound 368],–
< 1,+++ (+++ is >60%),Cc1cccc(CC2CCCCC2)c1-c1cc2nc(n1)NS(=O)(=O)c1cccc(c1)C(=O)N[C@H](CC(C)C)CO2 [Compound 387],–
< 1,++ (++ is 30-60%),Cc1cccc(C=C2CCCCC2)c1-c1cc2nc(n1)NS(=O)(=O)c1cccc(c1)C(=O)N[C@H](CC(C)C)CO2 [Compound 388],–
< 1,+++ (+++ is >60%),Cc1cccc(CCC(C)C)c1-c1cc2nc(n1)NS(=O)(=O)c1cccc(c1)C(=O)N[C@H](CC(C)C)CO2 [Compound 389],–
< 1,+++ (+++ is >60%),Cc1cccc(/C=C/C(C)C)c1-c1cc2nc(n1)NS(=O)(=O)c1cccc(c1)C(=O)N[C@H](CC(C)C)CO2 [Compound 390],–
< 1,+++ (+++ is >60%),Cc1cccc(CCC2CC2)c1-c1cc2nc(n1)NS(=O)(=O)c1cccc(c1)C(=O)N[C@H](CC(C)C)CO2 [Compound 391],–
